#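 Interpolation was linear, between the two tested concentrations surrounding the appropriate level; five concentrations were tested over 48 hours in 96-well plates. Abbreviation: GI50, concentration required for 50% inhibition of growth. TGI denotes the concentration required for complete inhibition of growth.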
# What was measured:
# Experiment in all cases: DTP human tumour cell line panel, 48 h
# RXF 393 renal = tested on: RXF 393 renal
# SF-539 CNS = tested on: SF-539 CNS
# OVCAR-5 ovarian = tested on: OVCAR-5 ovarian
# HCC-2998 colon = tested on: HCC-2998 colon
# CCRF-CEM leukemia = tested on: CCRF-CEM leukemia
# MDA-MB-435 = tested on: MDA-MB-435
# IGROV1 ovarian = tested on: IGROV1 ovarian
# SR leukemia = tested on: SR leukemia
SMILES,GI50 (RXF 393 renal),TGI (RXF 393 renal),GI50 (SF-539 CNS),TGI (SF-539 CNS),GI50 (OVCAR-5 ovarian),TGI (OVCAR-5 ovarian),GI50 (HCC-2998 colon),TGI (HCC-2998 colon),GI50 (CCRF-CEM leukemia),TGI (CCRF-CEM leukemia),TGI (MDA-MB-435),TGI (IGROV1 ovarian),TGI (SR leukemia)
Fc1ccc2[nH]cc(-c3nc(-c4c[nH]c5ccncc45)cs3)c2c1,1.48 µM,2.86 µM,1.52 µM,2.88 µM,1.93 µM,3.38 µM,1.92 µM,3.49 µM,1.89 µM,4.65 µM,,,
COc1ccc(N2CN(C)CSC2=S)cc1,,> 100 µM,,> 100 µM,,> 100 µM,,> 100 µM,,87.2 µM,> 100 µM,> 100 µM,
C/C(=N/NC(=S)N(C)C)c1ccccc1O,,> 100 µM,,50.3 µM,,> 100 µM,,> 100 µM,,21 µM,> 100 µM,> 100 µM,> 39.5 µM
COc1ccc(C(=O)c2c(-c3ccccc3NC(=O)C(F)(F)F)[nH]c3ccccc23)cc1,,,,4.41 µM,,25.5 µM,,9.11 µM,,15.2 µM,25.5 µM,24.3 µM,8.62 µM
COc1cc(NS(C)(=O)=O)ccc1NCc1cnc2ccc3[nH]cccc3c12,,21.3 µM,,42.2 µM,,50.4 µM,,35.4 µM,,59.5 µM,43.8 µM,> 100 µM,28 µM
Cn1c(=O)c2c(nc3n2CCC(=O)N3CCCCl)n(C)c1=O,,,,,,> 100 µM,,> 100 µM,,> 100 µM,> 100 µM,> 100 µM,> 100 µM
COc1cc(S(=O)(=O)Nc2ccc(-c3csc(N4C(=O)C(Cl)C4c4cccc(Oc5ccccc5)c4)n3)cc2)ccc1Cl (stereo not drawn),,15.6 µM,,29.6 µM,,> 100 µM,,> 100 µM,,> 100 µM,39.7 µM,7.45 µM,> 100 µM
Clc1ccc2nc3n[nH]c(Cl)c3nc2c1,,> 100 µM,,> 100 µM,,> 100 µM,,> 100 µM,,,> 100 µM,,
O=S(c1ccccc1)C1CC2CC3(CCC21O)OCCO3 (stereo not drawn),,> 100 µM,,,,> 100 µM,,> 100 µM,,> 100 µM,> 100 µM,> 100 µM,> 100 µM
CCNC(=O)NNc1ncnc2c1c(-c1ccc(Cl)cc1)cn2-c1ccc(C)cc1,,33.1 µM,,33.2 µM,,33.5 µM,,31.3 µM,,43.1 µM,30.7 µM,37.7 µM,43.3 µM
CCOC(=O)C1(C#N)C2(C#N)C(N)=NC(ON=C(C)C)(ON=C(C)C)C12C#N (stereo not drawn),,> 100 µM,,,,> 100 µM,,> 100 µM,,> 100 µM,> 100 µM,> 100 µM,> 100 µM
CCCCCCCCCC(O)CC(=O)c1c(O)cccc1O (stereo not drawn),,34.8 µM,,40.7 µM,,35.7 µM,,26.8 µM,,> 100 µM,68.1 µM,36.8 µM,
Cc1nc2ccccc2c(=O)n1NC(=O)c1ccccc1[N+](=O)[O-],,,,> 100 µM,,> 100 µM,,> 100 µM,,> 100 µM,> 100 µM,> 100 µM,> 100 µM
Nc1nc(Nc2ccc(Cl)cc2)sc1C(=O)c1c[nH]c2ccccc12,,44.1 µM,,31.6 µM,,46.2 µM,,24.1 µM,,> 100 µM,47.5 µM,37.1 µM,> 100 µM
CC(C(=O)NCCNC(=O)CCC(=O)N(C)O)C(=O)NCCNC(=O)CCC(=O)N(C)O,,> 100 µM,,,,> 100 µM,,> 100 µM,,> 100 µM,> 100 µM,> 100 µM,> 100 µM
CC(=O)OC12CC(C(F)(F)F)(C(F)(F)F)OC1(OC(C)=O)CC(C(F)(F)F)(C(F)(F)F)O2 (stereo not drawn),,77.7 µM,,8.48 µM,,90.6 µM,,> 100 µM,,> 100 µM,> 100 µM,> 100 µM,82.1 µM
Nc1nc2c(c(-c3ccccc3Cl)n1)COC/C2=C\c1ccccc1Cl,,29.9 µM,,34.4 µM,,31.7 µM,,34.6 µM,,32.8 µM,24.7 µM,34 µM,22.9 µM
CSc1c2c(C)n[nH]c2nn1-c1ccccc1,,> 100 µM,,> 100 µM,,> 100 µM,,> 100 µM,,> 100 µM,> 100 µM,,> 100 µM
c1ccc(C(c2cccc3c2ccc2ccccc23)C(c2ccccc2)c2cccc3c2ccc2ccccc23)cc1 (stereo not drawn),,> 100 µM,,> 100 µM,,> 100 µM,,> 100 µM,,> 100 µM,> 100 µM,> 100 µM,> 100 µM
N/C(=N\NC(=O)c1nc2ccccc2s1)c1ccccn1,,> 69 µM,,15.6 µM,,65.7 µM,,> 61.5 µM,,> 45.6 µM,> 37.6 µM,> 100 µM,
Nc1ncnc2c1ncn2C1OC(CO)C(O)C1NS(=O)(=O)c1ccccc1 (stereo not drawn),,> 100 µM,,> 100 µM,,> 100 µM,,> 100 µM,,> 100 µM,> 100 µM,> 100 µM,> 100 µM
CC(C)(C)c1cc(C(=O)C2Cc3ccccc3C(=O)O2)cc(C(C)(C)C)c1O (stereo not drawn),,27.7 µM,,31.7 µM,,31.8 µM,,,,34.7 µM,32.6 µM,32.6 µM,51.2 µM
CC(=O)NNc1nc(C)c(C(/C=C/c2ccc([N+](=O)[O-])cc2)=N/NC(N)=O)s1,,> 100 µM,,> 100 µM,,> 100 µM,,> 100 µM,,> 100 µM,> 100 µM,> 100 µM,> 100 µM
NC(=S)Nc1ccc2c(c1)oc1ccccc12,,> 100 µM,,,,> 100 µM,,> 100 µM,,> 100 µM,> 100 µM,> 100 µM,> 100 µM
COCCOC(C)C(=O)C(O)S(=O)(=O)O (stereo not drawn),,> 100 µM,,> 100 µM,,> 100 µM,,> 100 µM,,> 100 µM,> 100 µM,> 100 µM,> 100 µM
C=CCOC(=O)c1c(C)n([O-])c2cc(Cl)c(Cl)cc2[n+]1=O,,,,45.7 µM,,75.7 µM,,26.5 µM,,45.9 µM,41.2 µM,22.8 µM,13.1 µM
